Assay results: article PMC11121535, “Inhibition of Shikimate Kinase from Methicillin-Resistant Staphylococcus aureus by Benzimidazole Derivatives. Kinetic, Computational, Toxicological, and Biological Activity Studies” (International Journal of Molecular Sciences, 2024)
Read-outs that look alike come from different tables or passages of the source. Values belong to the compound of their own block, whether it stands above or below them.

Tests used:
shikimate kinase (SaSK) [1] = molecular target: T1, shikimate kinase (SaSK) (Staphylococcus aureus, UniProt Q5HFM1); assay: biochemical; design: Coupled PK/LDH assay of purified SaSK, NADH oxidation at 340 nm, fixed-concentration inhibition screen, 25 °C
T1 construct: gene aroK
T1 sequence (Q5HFM1 1-174): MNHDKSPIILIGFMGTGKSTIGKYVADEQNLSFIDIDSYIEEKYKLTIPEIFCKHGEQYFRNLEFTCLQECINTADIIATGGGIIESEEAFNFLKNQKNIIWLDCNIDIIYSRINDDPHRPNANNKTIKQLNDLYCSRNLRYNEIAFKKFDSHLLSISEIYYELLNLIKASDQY
Procedure: The activity of purified SaSK was measured by a coupled assay described by Favela et al., [67] following the oxidation of NADH to NAD, monitored at 340 nm using an Hp Agilent 8453 UV-VIS spectrophotometer. The assay mixture contained 100 mM Tris-HCl pH 7.6, 5 mM MgCl2, 100 mM KCl, 2 mM ATP, 1 mM shikimate, 1 mM phosphoenolpyruvate, 6 μg/mL pyruvate kinase, 6 μg/mL lactate dehydrogenase, 0.25 mM NADH, 10% of dimethyl sulfoxide (DMSO), and 70 ng of purified SaSK protein. All assays were performed in triplicate at 25 °C. It is important to mention that at the percentage of DMSO used, the activity of the enzyme was not affected. The primary screening of the benzimidazole compound library was carried out at a fixed concentration of 200 µM or at the maximum solubility possible for compounds with poor solubility in assay conditions. All the compounds were dissolved in DMSO.

shikimate kinase (SaSK) [2] = molecular target: T2, shikimate kinase (SaSK) (Staphylococcus aureus, UniProt Q5HFM1); assay: pyruvate kinase/lactate dehydrogenase coupled assay with purified SaSK; Lineweaver-Burk (Ki […] vs shikimate, […] vs ATP); assay type: biochemical
T2 construct: gene aroK

shikimate kinase (SaSK) [3] = molecular target: T2, shikimate kinase (SaSK); assay: as above; assay type: biochemical; remark: listed apart in the source
shikimate kinase (SaSK) [4] = molecular target: T2, shikimate kinase (SaSK); assay: coupled enzyme assay, purified SaSK, % inhibition at […]; assay type: biochemical

Compound: O=C(NN=Cc1ccc([N+](=O)[O-])o1)c1ccc2[nH]cnc2c1 [C1, N′-[(5-Nitrofuran-2-yl)methylene]-1H-benzimidazole-5-carbohydrazide]
inhibition at 70 µM (shikimate kinase (SaSK) [1]): 50% | Ki (shikimate kinase (SaSK) [2]): 48 µM

Compound: Cn1c(C(F)(F)F)nc2cc(C(=O)NN=Cc3ccc([N+](=O)[O-])o3)ccc21 [C2, 1-Methyl-N′-[(5-nitrofuran-2-yl)methylene]-2-(trifluoromethyl)-1H-benzimidazole-5-carbohydrazide]
Ki (shikimate kinase (SaSK) [3]): 50 µM | inhibition at 100 µM (shikimate kinase (SaSK) [1]): 60%

inhibition at 100 µM (shikimate kinase (SaSK) [4]): 43%
Compound: O=C(NN=Cc1ccc([N+](=O)[O-])o1)c1ccc2[nH]c(C(F)(F)F)nc2c1 [C3, N′-[(5-Nitrofuran-2-yl)methylene]-2-(trifluoromethyl)-1H-benzimidazole-5-carbohydrazide]

inhibition at 100 µM (shikimate kinase (SaSK) [4]): 40%
Compound: Cn1cnc2cc(C(=O)NN=Cc3ccc([N+](=O)[O-])o3)ccc21 [C4, 1-Methyl-N′-[(5-nitrofuran-2-yl)methylene]-1H-benzimidazole-5-carbohydrazide]
